For this assay, the target named is T1, canine TRPM8 (Canis lupus familiaris, UniProt Q1A7N1).
T1 construct: expressed in transfected cells
The assay can be described thus: In vitro canine TRPM8 functional assay (Ca2+-sensitive dye, FLIPR/FDSS, icilin activation). Type of assay: cell-based. The following applies: HEK293 cells expressing canine TRPM8, icilin activation; for % I (1 μM): 1 μM compound; for IC50: eight-point dose-response; for % I (5 μM): 5 μM compound. The method in brief: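 Icilin challenge (final concentration producing ~80% of maximal response) followed a 5 min compound exposure in canine TRPM8-HEK293 cells dye-loaded with Calcium 3. Intracellular Ca2+ was read on FLIPR/FDSS. EC50 and IC50 values came from nonlinear sigmoidal dose-response fits of basal-subtracted, percent-of-maximum data averaged over quadruplicates.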

The mark [1] stands for this setting: HEK293, read-out: % I (1 μM), 1 μM compound.
The mark [2] stands for this setting: HEK293, 1 μM compound, read-out: % I (1 μM).

This note sets out measurements from US20080287398A1, “COLD MENTHOL RECEPTOR-1 ANTAGONISTS” (priority 2007, published 2008).

Molecules are shown by their SMILES. Where “and” joins values, the source holds several entries; their conditions need not be identical. Equal entries are not always repeated. Where two headings read alike, the source gives them in different places.

T1 sequence (Q1A7N1 1-1104): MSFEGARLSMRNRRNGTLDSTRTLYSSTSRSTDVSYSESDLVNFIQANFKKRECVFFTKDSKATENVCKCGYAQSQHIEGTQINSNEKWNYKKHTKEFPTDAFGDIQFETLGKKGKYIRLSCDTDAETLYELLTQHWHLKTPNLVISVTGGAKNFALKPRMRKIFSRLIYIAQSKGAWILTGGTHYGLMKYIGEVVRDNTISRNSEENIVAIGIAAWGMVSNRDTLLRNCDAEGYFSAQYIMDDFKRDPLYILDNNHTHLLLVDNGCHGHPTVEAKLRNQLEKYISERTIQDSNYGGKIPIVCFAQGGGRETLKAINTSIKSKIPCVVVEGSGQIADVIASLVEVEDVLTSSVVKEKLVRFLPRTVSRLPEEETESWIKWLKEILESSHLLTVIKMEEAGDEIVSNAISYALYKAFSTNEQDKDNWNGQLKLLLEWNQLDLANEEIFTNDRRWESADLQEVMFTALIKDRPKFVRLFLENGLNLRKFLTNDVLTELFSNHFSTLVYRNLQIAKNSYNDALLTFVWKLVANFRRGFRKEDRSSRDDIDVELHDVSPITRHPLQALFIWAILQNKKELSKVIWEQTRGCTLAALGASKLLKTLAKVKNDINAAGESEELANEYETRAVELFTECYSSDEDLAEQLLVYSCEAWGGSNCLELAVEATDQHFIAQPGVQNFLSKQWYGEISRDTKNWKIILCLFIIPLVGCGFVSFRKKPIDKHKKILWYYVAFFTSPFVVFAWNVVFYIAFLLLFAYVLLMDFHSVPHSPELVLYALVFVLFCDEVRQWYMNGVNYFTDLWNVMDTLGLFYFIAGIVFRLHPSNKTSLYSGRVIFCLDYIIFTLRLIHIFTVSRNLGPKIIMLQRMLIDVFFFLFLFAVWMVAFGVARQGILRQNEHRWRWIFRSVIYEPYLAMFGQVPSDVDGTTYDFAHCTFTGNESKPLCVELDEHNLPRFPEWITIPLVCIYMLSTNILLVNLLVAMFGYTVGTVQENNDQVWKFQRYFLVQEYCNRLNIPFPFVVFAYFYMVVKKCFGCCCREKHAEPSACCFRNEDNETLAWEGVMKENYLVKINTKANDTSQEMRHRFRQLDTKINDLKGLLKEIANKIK

The IC50 is the point on the concentration scale where inhibition reaches its midpoint. In the case of `CC(C)OP(=O)(OC(C)C)C(Cc1cccc(C(F)(F)F)c1)c1cc2ccccc2s1` (centres unmarked) [Cpd 69], the “% I (1 μM)” value stood at 99%. Further, under “read-out: IC50”, the concentration for half-maximal inhibition (IC50) is 0.35 µM.
Take `CCOP(=O)(OCC)C(Cc1ccc(Br)cc1)c1cc2ccccc2s1` (centres unmarked) [Cpd 70]: the “% I (1 μM)” value came to 82% and the “% I (5 μM)” value is reported as 99%. Besides, the IC50 (read-out: IC50) turned out to be 0.35 µM.
As for `CCOP(=O)(OCC)C(Cc1cc2c(cc1Cl)OCO2)c1sc2ccccc2c1C` (centres unmarked) [Cpd 71], the “% I (1 μM)” value turned out to be 98%. Moreover, the IC50 (read-out: IC50) worked out at 0.36 µM.
As for `CCOP(=O)(OCC)C(Cc1cccc(-c2ccncc2)c1)c1sc2ccccc2c1C` (centres unmarked) [Cpd 72, [1-(3-Methyl-benzo[b]thiophen-2-yl)-2-(3-pyridin-4-yl-phenyl)-ethyl]-phosphonic acid diethyl ester], the inhibition at 1 µM under setting [1] came to 99%. The IC50 (IC50 (μM)) turned out to be 0.36 µM.
Take `CCOP(=O)(OCC)C(Cc1cc(C(F)(F)F)cc(Cl)c1F)c1sc2ccccc2c1C` (centres unmarked) [Cpd 73]: the “% I (1 μM)” value is given as 100%. In addition, where the note is “read-out: IC50”, the IC50 came out at 0.36 µM.
In the same order, the values of `CCOP(=O)(OCC)C(Cc1ccccc1)c1cc2ccccc2s1` (centres unmarked) [Cpd 74] are 92% and 0.38 µM.
The corresponding values for `CCOP(=O)(OCC)C(Cc1cc(F)c(Cl)cc1Cl)c1sc2ccccc2c1C` (centres unmarked) [Cpd 76] are 100% and 0.4 µM.
In the case of `CCOP(=O)(OCC)C(Cc1cccc(-c2ccccc2)c1)c1sc2ccccc2c1C` (centres unmarked) [Cpd 77], under setting [1], the inhibition at 1 µM came to 98%. For the setting “IC50 (μM)”, this molecule displayed an IC50 of 0.41 µM.
Take `CCOP(=O)(OCC)C(Cc1ccc(Cl)c(Cl)c1)c1cc2ccccc2s1` (centres unmarked) [Cpd 78, [1-Benzo[b]thiophen-2-yl-2-(3,4-dichloro-phenyl)-ethyl]-phosphonic acid diethyl ester]: the inhibition at 1 µM under setting [1] stood at 95%. The same molecule displayed an IC50 (IC50 (μM)) of 0.43 µM.
The corresponding values for `CCOP(=O)(OCC)C(C)(Cc1ccc(F)c(F)c1)c1sc2ccccc2c1C` (centres unmarked) [Cpd 79, [2-(3,4-Difluoro-phenyl)-1-methyl-1-(3-methyl-benzo[b]-thiophen-2-yl)-ethyl]-phosphonic acid diethyl ester] are 88% and 0.43 µM.
As for `CCOP(=O)(OCC)C(Cc1ccccc1F)c1cc2ccccc2s1` (centres unmarked) [Cpd 80], the “% I (1 μM)” value came out at 93% and the “% I (5 μM)” value is on record as 100%. Besides, the IC50 (read-out: IC50) came to 0.43 µM.
For the molecule `CCOP(=O)(OCC)C(Cc1cccc(C(F)(F)F)c1Cl)c1sc2ccccc2c1C` (centres unmarked) [Cpd 81], the “% I (1 μM)” value was 100% and 87%. The IC50 (read-out: IC50) was 0.44 µM and 0.61 µM.
Regarding `CCOP(=O)(OCC)C(Cc1ccc(F)c(F)c1)c1sc2cc(OC)ccc2c1C` (centres unmarked) [Cpd 82, [2-(3,4-Difluoro-phenyl)-1-[6-methoxy-3-methyl-benzo[b]thiophene-2-yl)-ethyl]-phosphonic acid diethyl ester], the inhibition at 1 µM under setting [1] is 87%. Moreover, the IC50 (IC50 (μM)) was 0.44 µM.
Regarding `CCOP(=O)(OCC)C(Cc1ccc2ccccc2c1)c1cc2ccccc2s1` (centres unmarked) [Cpd 83], the “% I (1 μM)” value stood at 84%. Moreover, for the setting “read-out: IC50”, the IC50 was determined as 0.45 µM.
Turning to `CCOP(=O)(OCC)C(Cc1ccc(F)c(F)c1)c1sc2cccc(C(F)(F)F)c2c1C` (centres unmarked) [Cpd 84], the inhibition at 1 µM under setting [1] stood at 97%. For the same molecule, where the note is “IC50 (μM)”, the IC50 is 0.46 µM.
Consider `CCOP(=O)(OCC)C(Cc1ccccc1Cl)c1cc2ccccc2s1` (centres unmarked) [Cpd 85], for which the “% I (1 μM)” value is given as 90% and the “% I (5 μM)” value came to 100%. Where the note is “read-out: IC50”, the IC50 came out at 0.48 µM.
As to `CCOP(=O)(OCC)C(Cc1ccccc1F)c1csc2ccccc12` (centres unmarked) [Cpd 86], the “% I (5 μM)” value is reported as 101%. Besides, the IC50 (read-out: IC50) was determined as 0.5 µM.
For `CCOP(=O)(OCC)C(Cc1ccc(F)c(F)c1)C1=C(C)c2ccccc2S1(=O)=O` (centres unmarked) [Cpd 88, [2-(3,4-Difluoro-phenyl)-1-(3-methyl-1,1-dioxo-1H-1λ^6-benzo-[b]thiophen-2-yl)-ethyl]-phosphonic acid diethyl ester], the inhibition at 1 µM under setting [1] amounted to 80%. Further, the IC50 (IC50 (μM)) is 0.5 µM and 0.54 µM.
`CCOP(=O)(OCC)C(Cc1ccccc1C)c1cc2ccccc2s1` (centres unmarked) [Cpd 89]: the “% I (1 μM)” value is listed as 91% and the “% I (5 μM)” value is listed as 100%. Moreover, for the setting “read-out: IC50”, the IC50 is 0.52 µM.
For the molecule `CCOP(=O)(OCC)C(Cc1cc2ccccc2s1)c1cc2ccccc2s1` (centres unmarked) [Cpd 90], the “% I (1 μM)” value was found to be 89%. For the setting “read-out: IC50”, the IC50 was determined as 0.54 µM.
Regarding `Cc1c(C(Cc2ccc(F)c(F)c2)P(=O)(OC(C)C)OC(C)C)sc2ccc(Cl)cc12` (centres unmarked) [Cpd 92, [1-(5-Chloro-3-methyl-benzo[b]thiophen-2-yl)-2-(3,4-difluoro-phenyl)-ethyl]-phosphonic acid diisopropyl ester], the inhibition at 1 µM under setting [2] came to 91%. Further, the IC50 (read-out: IC50) stood at 0.58 µM.
The corresponding values for `CC(C)OP(=O)(OC(C)C)C(Br)(Cc1ccc(F)c(F)c1)c1sc2ccccc2c1Br` (centres unmarked) [Cpd 93, [1-Bromo-1-(3-bromo-benzo[b]thiophen-2-yl)-2-(3,4-difluoro-phenyl)-ethyl]-phosphonic acid diisopropyl ester] are 80% and 0.58 µM.
Consider `CCOP(=O)(Cc1cc2ccccc2s1)OCc1c(Cl)cccc1Cl` (centres unmarked) [Cpd 94, Benzo[b]thiophen-2-ylmethyl-phosphonic acid 2,6-dichloro-benzyl ester ethyl ester], for which the “% I (5 μM)” value is reported as 98%. Further, under setting [1], the inhibition at 1 µM was determined as 79%. Moreover, under “IC50 (μM)”, half-maximal inhibition (IC50) required 0.6 µM.
In the case of `CCOP(=O)(OCC)C(Cc1c(Cl)cccc1Cl)c1cc2ccccc2s1` (centres unmarked) [Cpd 95], the “% I (1 μM)” value is listed as 89% and the “% I (5 μM)” value is on record as 100%. For the same molecule, the IC50 (read-out: IC50) was determined as 0.6 µM.
Consider `CCOP(=O)(OCC)C(Cc1cc(C(F)(F)F)cc(C(F)(F)F)c1)c1cc2ccccc2s1` (centres unmarked) [Cpd 96], for which the “% I (1 μM)” value worked out at 92%. Further, under “read-out: IC50”, the IC50 was determined as 0.64 µM.
The corresponding values for `CCOP(=O)(OCC)C(Cc1ccc(F)cc1Cl)c1cc2ccccc2s1` (centres unmarked) [Cpd 98] are 79% and 0.71 µM.
In the same order, the values of `CCOP(=O)(OCC)C(Cc1cc(C(F)(F)F)ccc1Cl)c1sc2ccccc2c1C` (centres unmarked) [Cpd 99] are 100% and 0.72 µM.
In the same order, the values of `CCOP(=O)(OCC)C(Cc1cccc(Cl)c1Cl)c1cc2ccccc2s1` (centres unmarked) [Cpd 100] are 82% and 0.73 µM.
As for `Cc1c(C(Cc2ccc(F)c(F)c2)P(=O)(OC2CCCCC2)OC2CCCCC2)sc2ccccc12` (centres unmarked) [Cpd 101, [2-(3,4-Difluoro-phenyl)-1-(3-methyl-benzo[b]thiophen-2-yl)-ethyl]-phosphonic acid dicyclohexyl ester], the inhibition at 1 µM under setting [2] was found to be 55%. Further, the IC50 (read-out: IC50) is 0.75 µM.
Regarding `CCOP(=O)(OCC)C(Cc1ccccc1C(F)(F)F)c1cc2ccccc2s1` (centres unmarked) [Cpd 102], the “% I (1 μM)” value is listed as 86%. The IC50 (read-out: IC50) came out at 0.75 µM.
As for `CCOP(=O)(OCCN(C)C)C(Cc1ccc(F)c(F)c1)c1sc2ccccc2c1C` (centres unmarked) [Cpd 103, [2-(3,4-Difluoro-phenyl)-1-(3-methyl-benzo[b]thiophen-2-yl)-ethyl]-phosphonic acid 2-dimethylamino-ethyl ester ethyl ester], the inhibition at 1 µM under setting [1] was found to be 60%. The molecule further came in with an IC50 (IC50 (μM)) of 0.93 µM.
As to `CCOP(=O)(Cc1cc2ccccc2s1)OCc1ccccc1C` (centres unmarked) [Cpd 104, Benzo[b]thiophen-2-ylmethyl-phosphonic acid ethyl ester 2-methyl-benzyl ester], the “% I (5 μM)” value came out at 99%. The inhibition at 1 µM under setting [1] was 53%. This molecule gave an IC50 (IC50 (μM)) of 0.96 µM.
